# Reference: PubChem BioAssay (NCI)
#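 The compound was tested at five concentrations on cells cultured in 96-well plates, with a 48-hour exposure period. TGI: concentration producing complete growth inhibition.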
# Assays:
# Experiment in all cases: DTP human tumour cell line panel, 48 h
# CAKI-1 renal = test system: CAKI-1 renal
# SK-MEL-5 melanoma = test system: SK-MEL-5 melanoma
# K-562 leukemia = test system: K-562 leukemia
# A498 renal = test system: A498 renal
# UACC-257 melanoma = test system: UACC-257 melanoma
# EKVX NSCLC = test system: EKVX NSCLC
# MDA-MB-435 = test system: MDA-MB-435
# MOLT-4 leukemia = test system: MOLT-4 leukemia
# BT-549 breast = test system: BT-549 breast
# U251 CNS = test system: U251 CNS
# ACHN renal = test system: ACHN renal
# CCRF-CEM leukemia = test system: CCRF-CEM leukemia
# NCI-H460 lung = test system: NCI-H460 lung
# OVCAR-5 ovarian = test system: OVCAR-5 ovarian
# UACC-62 melanoma = test system: UACC-62 melanoma
# MDA-MB-231 breast = test system: MDA-MB-231 breast
# COLO 205 colon = test system: COLO 205 colon
# OVCAR-8 ovarian = test system: OVCAR-8 ovarian
# SN12C renal = test system: SN12C renal
# HOP-92 NSCLC = test system: HOP-92 NSCLC
compound,measurement,setting,value
C=CCCCC1(C)CCCCNC1=O (stereo not drawn),TGI,CAKI-1 renal,> 10 µM
same,TGI,SK-MEL-5 melanoma,> 10 µM
same,TGI,K-562 leukemia,> 10 µM
same,TGI,A498 renal,> 10 µM
same,TGI,UACC-257 melanoma,> 10 µM
same,TGI,EKVX NSCLC,> 10 µM
same,TGI,MDA-MB-435,> 10 µM
same,TGI,MOLT-4 leukemia,> 10 µM
same,TGI,BT-549 breast,> 10 µM
same,TGI,U251 CNS,> 10 µM
same,TGI,ACHN renal,> 10 µM
same,TGI,CCRF-CEM leukemia,> 10 µM
same,TGI,NCI-H460 lung,> 10 µM
same,TGI,OVCAR-5 ovarian,> 10 µM
same,TGI,UACC-62 melanoma,> 10 µM
same,TGI,MDA-MB-231 breast,> 10 µM
same,TGI,COLO 205 colon,> 10 µM
same,TGI,OVCAR-8 ovarian,> 10 µM
same,TGI,SN12C renal,> 10 µM
c1ccc(C2CC(N3CCOCC3)=Nc3ccccc3N2)cc1 (stereo not drawn),TGI,CAKI-1 renal,> 100 µM
same,TGI,SK-MEL-5 melanoma,> 100 µM
same,TGI,K-562 leukemia,> 100 µM
same,TGI,A498 renal,> 100 µM
same,TGI,UACC-257 melanoma,> 100 µM
same,TGI,EKVX NSCLC,> 100 µM
same,TGI,MDA-MB-435,> 100 µM
same,TGI,MOLT-4 leukemia,> 100 µM
same,TGI,BT-549 breast,> 100 µM
same,TGI,U251 CNS,> 100 µM
same,TGI,ACHN renal,> 100 µM
same,TGI,CCRF-CEM leukemia,> 100 µM
same,TGI,NCI-H460 lung,> 100 µM
same,TGI,OVCAR-5 ovarian,> 100 µM
same,TGI,UACC-62 melanoma,> 100 µM
same,TGI,MDA-MB-231 breast,> 100 µM
same,TGI,COLO 205 colon,> 100 µM
same,TGI,OVCAR-8 ovarian,> 100 µM
same,TGI,SN12C renal,> 100 µM
CC(C)(C)SC1=CCC[C@@H](P(=O)(c2ccccc2)c2ccccc2)[C@@H]2CCC[C@@H]12,TGI,CAKI-1 renal,32.9 µM
same,TGI,HOP-92 NSCLC,28.9 µM
same,TGI,SK-MEL-5 melanoma,32.8 µM
same,TGI,K-562 leukemia,51.6 µM
same,TGI,A498 renal,29.4 µM
same,TGI,UACC-257 melanoma,31.8 µM
same,TGI,EKVX NSCLC,33.7 µM
same,TGI,MDA-MB-435,33.1 µM
same,TGI,MOLT-4 leukemia,38.1 µM
same,TGI,BT-549 breast,32.3 µM
same,TGI,U251 CNS,33.3 µM
same,TGI,ACHN renal,30.6 µM
same,TGI,CCRF-CEM leukemia,60.6 µM
same,TGI,NCI-H460 lung,30.8 µM
same,TGI,OVCAR-5 ovarian,27.1 µM
same,TGI,UACC-62 melanoma,24.9 µM
same,TGI,COLO 205 colon,34.1 µM
same,TGI,OVCAR-8 ovarian,39.2 µM
same,TGI,SN12C renal,29.3 µM
CC(=O)Oc1ccc(-c2cc3ccccc3oc2=O)cc1OC(C)=O,TGI,K-562 leukemia,> 100 µM
same,TGI,A498 renal,> 100 µM
same,TGI,UACC-257 melanoma,> 100 µM
same,TGI,EKVX NSCLC,> 100 µM
same,TGI,MDA-MB-435,> 100 µM
same,TGI,MOLT-4 leukemia,> 100 µM
same,TGI,BT-549 breast,> 100 µM
same,TGI,U251 CNS,> 100 µM
same,TGI,ACHN renal,> 100 µM
same,TGI,CCRF-CEM leukemia,> 100 µM
same,TGI,NCI-H460 lung,> 100 µM
same,TGI,OVCAR-5 ovarian,> 100 µM
same,TGI,MDA-MB-231 breast,> 100 µM
same,TGI,COLO 205 colon,> 100 µM
same,TGI,OVCAR-8 ovarian,> 100 µM
same,TGI,SN12C renal,> 100 µM
Cc1cccc(C)c1NC(=S)/N=C/C1=C(O)c2ccccc2C1=O,TGI,CAKI-1 renal,68.9 µM
same,TGI,HOP-92 NSCLC,> 65.8 µM
same,TGI,SK-MEL-5 melanoma,29.3 µM
same,TGI,K-562 leukemia,> 100 µM
same,TGI,UACC-257 melanoma,> 88.5 µM
same,TGI,EKVX NSCLC,> 94.4 µM
same,TGI,MDA-MB-435,> 80.1 µM
same,TGI,BT-549 breast,> 28.8 µM
same,TGI,U251 CNS,> 100 µM
same,TGI,ACHN renal,> 100 µM
same,TGI,CCRF-CEM leukemia,> 100 µM
same,TGI,NCI-H460 lung,> 100 µM
same,TGI,OVCAR-5 ovarian,> 100 µM
same,TGI,UACC-62 melanoma,> 70.8 µM
same,TGI,MDA-MB-231 breast,> 100 µM
same,TGI,COLO 205 colon,> 40.4 µM
same,TGI,OVCAR-8 ovarian,> 100 µM
same,TGI,SN12C renal,> 100 µM
CCNC1CC(C(C)(C)NCC)CC=C1C (stereo not drawn),TGI,HOP-92 NSCLC,> 100 µM
same,TGI,SK-MEL-5 melanoma,> 100 µM
same,TGI,K-562 leukemia,> 100 µM
same,TGI,UACC-257 melanoma,> 100 µM
same,TGI,EKVX NSCLC,> 100 µM
same,TGI,MDA-MB-435,> 100 µM
same,TGI,MOLT-4 leukemia,> 100 µM
same,TGI,BT-549 breast,> 100 µM
same,TGI,U251 CNS,> 100 µM
same,TGI,CCRF-CEM leukemia,> 100 µM
same,TGI,NCI-H460 lung,> 100 µM
same,TGI,OVCAR-5 ovarian,> 100 µM
same,TGI,UACC-62 melanoma,> 100 µM
same,TGI,MDA-MB-231 breast,> 100 µM
same,TGI,COLO 205 colon,> 100 µM
same,TGI,OVCAR-8 ovarian,> 100 µM
same,TGI,SN12C renal,> 100 µM
